Laboratory results from patent publication US8722014B2, “1 H-[1, 2, 3] triazole substituted amino acids and uses thereof” (Washington University, priority 2009, dated 2014).
Several values for one entry are separate records, joined by “and”; a condition that tells them apart may be missing. Equal entries are not always repeated. Where two headings read alike, the source gives them in different places.

What was measured:
9L gliosarcoma cells = experiment: Cell uptake assay in 9L gliosarcoma cells with amino acid transport inhibitors (cluster tray method); format: cell-based; conditions: for percent uptake relative to control, Na ASC: L-Ala/L-Ser/L-Cys 3.3 mM each
Experimental: The 9L gliosarcoma tumor is an established model for human glioblastoma (brain tumor). Cell uptake assays were performed with 9L gliosarcoma cells using both (R)-[^18F]4 and (S)-[^18F]4. 9L gliosarcoma cells were cultured with Earle's minimal essential medium (MEM) augmented with 10% newborn calf serum, 1% 200 mM L-glutamine, 1% MEM vitamin solution and 1% 10 mM non-essential amino acids (NEAA). The cells were passaged every two to three days prior to use with no more than a total of 20 passages. Two to three days before the uptake assays, suspension of 2.5 or 5.0×10^4 cells in culture media were aliquoted into Costar 24 well plates to achieve log growth phase with approximately 70% confluency at the time of the uptake assay (approximately 10^5 cells per well).
Cell uptake assays were performed using the cluster tray method reported in Gazzola et al., Anal. Biochem. 115: 368-374, 1981. Two buffers were used for the assays, a phosphate buffered saline solution and a sodium-free phosphate buffered choline chloride solution. […] The choline buffer was the same as the sodium buffer except choline chloride was substituted for sodium chloride and choline phosphate dibasic was substituted for sodium phosphate dibasic. A 250 mM solution of choline phosphate dibasic was prepared by boiling 95.6 mL of 75% of choline bicarbonate (0.500 mol) and 16.9 mL of 85% aqueous phosphoric acid (0.247 mol) in 750 mL of water for 60 min. The solution was brought to a total volume of 1 liter with water and brought to pH 7.4 with concentrated aqueous hydrochloric acid. The pH of the sodium and choline buffer solutions was adjusted to 7.4 with concentrated aqueous hydrochloric acid prior to use.
A variety of inhibitor conditions were used to determine which amino acid transport system or systems were responsible for cellular uptake of (R)- and (S)-[^18F]-4. The N-methylated amino acid, methylaminoisobutyric acid (MeAIB), is a selective system A substrate and has been used extensively as a competitive inhibitor of system A transport (Shotwell, M. A., et al. Biochem. Biophys. Acta. 737: 267-284, 1983; Christensen, H. N., et al., J. Biol. Chem. 240: 3609-3616, 1965) The bulky neutral amino acid, 2-aminobicyclo-(2,2,1)-heptane-2-carboxylic acid (BCH), has been extensively used as a competitive inhibitor of system L transport, and under sodium-free conditions BCH is a selective system L inhibitor (Palacin, M., et al., Physiol. Rev. 78: 969-1054, 1998. In the presence of sodium, BCH is also an inhibitor of system B^0,+ which is a sodium-dependent amino acid transporter that typically is a minor transport systems in most tissues. A mixture of L-alanine (L-Ala), L-serine (L-Ser) and L-cysteine (L-Cys), (ASC), was used as a non-specific inhibitor condition, and this combination of amino acids is expected to inhibit a broad range of amino acid transport systems including system ASC. Because of the results of initial cell uptake assays described below and the structural relationship of the 1H-1,2,3-triazole group to the imidazole side chain of L-histidine (L-His), additional uptake assays using L-His as well as the basic side chain amino acids L-arginine (L-Arg) and L-lysine (L-Lys) individually and together (RKH) as competitive inhibitors were performed.
The following inhibitors were added to the appropriate sodium or choline buffer: N-methyl aminoisobutyric acid (MeAIB, 10 mM), a mixture of L-alanine/L-serine/L-cysteine (ASC, 3.3 mM of each amino acid), (R,S)-(endo,exo)-2-aminobicyclo(2,2,1)-heptane-2-carboxylic acid (BCH, 10 mM), L-arginine (Arg, 10 mM), L-lysine (Lys, 10 mM), L-histidine (His, 10 mM) and a mixture of Arg/Lys/H is (RKH, 3.3 mM of each amino acid). For control conditions, 10 mM of sucrose was added to maintain consistent osmolality relative to the inhibitor conditions. The pH of each solution of inhibitor in buffer was adjusted as necessary to 7.40 with 3 M aqueous hydrochloric acid prior to use in cell uptake assays. […]

[1] = tested on: subcutaneous 9L gliosarcoma tumors
Experimental: Biodistribution studies were performed with both enantiomers, (R)-[^18F]4 and (S)-[^18F]4, using Fischer 344 rats (Charles River Laboratories, Wilmington Mass., USA) implanted with subcutaneous 9L gliosarcoma tumors. The tumors were implanted by subcutaneous injection of a suspension of approximately 1×10^69L gliosarcoma cells into the flanks of the rats. The tumors were allowed to grow for 3 weeks prior to the study. The rats were allowed food and water ad libitum prior to the biodistribution study. Anesthesia was achieved using a mixture of 1% isoflurane in oxygen, and the radiolabeled amino acid (R)-[^18F]4 or (S)-[^18F]4 was injected intravenously through a tail vein. The animals were euthanized in groups of four for each enantiomer at 5, 30 or 60 minutes after injection. The organs and tissues of interest and the tumors were dissected and weighed, and the amounts of activity were measured and decay corrected to the time of injection with a gamma counter. Standards for the doses were also measured with a gamma counter, and the data were normalized as the percent of total dose per gram of tissue (% ID/g) for each sample. The data were analyzed using GraphPad Prism software with 1-way ANOVAs for each enantiomer at each time point with Bonferroni post-tests. The tumor and brain uptake of radioactivity was directly compared for both enantiomers at each time point with a 2-way ANOVA with Bonferroni post-test. p-values less than or equal to 0.05 were considered statistically significant.

Cl.N[C@H](Cc1cn(CC[18F])nn1)C(=O)O [(R)-[^18F]4, (R)-2-amino-3-[1-(2-fluoroethyl)-1H-[1,2,3]triazol-4-yl]propanoic acid hydrochloride salt-[^18F]]
inhibition of uptake by ASC condition relative to the sodium control (9L gliosarcoma cells; neutral amino acid inhibitor assay, p<0.001): 36% | uptake mediated by system L or cationic amino acid transport systems (9L gliosarcoma cells; same uptake assays with inhibitors): did not demonstrate significant uptake | inhibition of uptake by ASC condition relative to the sodium control (9L gliosarcoma cells; second independent assay, p<0.01): 33% | percent uptake relative to control, Na RKH (9L gliosarcoma cells; sodium buffer, Arg/Lys/His 3.3 mM each (FIG. 4/6)): 82±4% | percent uptake relative to control, Na BCH (9L gliosarcoma cells; sodium buffer, BCH 10 mM, 30 sec uptake, neutral amino acid inhibitor assay (FIG. 3/5)): 110±11% | percent uptake relative to control, Na ASC (9L gliosarcoma cells; sodium buffer, 30 sec uptake, neutral amino acid inhibitor assay (FIG. 3/5)): 64±6% | percent uptake relative to control, Na ASC (9L gliosarcoma cells; sodium buffer, basic side chain amino acid inhibitor assay (FIG. 4/6)): 67±15% | percent uptake relative to control, Na Arg (9L gliosarcoma cells; sodium buffer, L-arginine 10 mM (FIG. 4/6)): 83±7% | percent uptake relative to control, Na His (9L gliosarcoma cells; sodium buffer, L-histidine 10 mM (FIG. 4/6)): 91±10% | percent uptake relative to control, Na Lys (9L gliosarcoma cells; sodium buffer, L-lysine 10 mM (FIG. 4/6)): 104±8% | percent uptake relative to control, Na MeAIB (9L gliosarcoma cells; sodium buffer, MeAIB 10 mM, 30 sec uptake, neutral amino acid inhibitor assay (FIG. 3/5)): 97±7% | percent uptake relative to control, Cho BCH (9L gliosarcoma cells; sodium-free choline buffer, BCH 10 mM, relative to sodium control (FIG. 3/5)): 95±4% | percent uptake relative to control, Cho sucrose (9L gliosarcoma cells; sodium-free choline buffer, sucrose 10 mM, relative to sodium control (FIG. 3/5)): 107±14% | biodistribution: blood ([1]; 5 min after i.v. injection): 0.90 ± 0.166 % ID/g | biodistribution: bone ([1]; 5 min after i.v. injection): 0.32 ± 0.083 % ID/g | biodistribution: brain ([1]; 5 min after i.v. injection): 0.09 ± 0.015 % ID/g | biodistribution: fat ([1]; 5 min after i.v. injection): 0.10 ± 0.044 % ID/g | biodistribution: heart ([1]; 5 min after i.v. injection): 0.42 ± 0.076 % ID/g | biodistribution: kidney ([1]; 5 min after i.v. injection): 14.01 ± 3.826 % ID/g | biodistribution: large intestine ([1]; 5 min after i.v. injection): 0.15 ± 0.043 % ID/g | biodistribution: liver ([1]; 5 min after i.v. injection): 0.54 ± 0.153 % ID/g | biodistribution: lung ([1]; 5 min after i.v. injection): 0.74 ± 0.143 % ID/g | biodistribution: muscle ([1]; 5 min after i.v. injection): 0.18 ± 0.049 % ID/g | biodistribution: pancreas ([1]; 5 min after i.v. injection): 0.53 ± 0.126 % ID/g | biodistribution: salivary gland ([1]; 5 min after i.v. injection): 0.46 ± 0.083 % ID/g | biodistribution: small intestine ([1]; 5 min after i.v. injection): 0.32 ± 0.079 % ID/g | biodistribution: spleen ([1]; 5 min after i.v. injection): 0.33 ± 0.065 % ID/g | biodistribution: testes ([1]; 5 min after i.v. injection): 0.18 ± 0.042 % ID/g | biodistribution: thyroid ([1]; 5 min after i.v. injection): 0.64 ± 0.092% of total dose per organ | biodistribution: tumor ([1]; 5 min after i.v. injection): 0.27 ± 0.042 % ID/g | tumor:brain ratio ([1]; 5 min after i.v. injection): 3.2 | biodistribution: blood ([1]; 30 min after i.v. injection): 0.28 ± 0.037 % ID/g | biodistribution: bone ([1]; 30 min after i.v. injection): 0.13 ± 0.027 % ID/g | biodistribution: brain ([1]; 30 min after i.v. injection): 0.04 ± 0.005 % ID/g | biodistribution: fat ([1]; 30 min after i.v. injection): 0.03 ± 0.012 % ID/g | biodistribution: heart ([1]; 30 min after i.v. injection): 0.13 ± 0.014 % ID/g | biodistribution: kidney ([1]; 30 min after i.v. injection): 6.76 ± 0.830 % ID/g | biodistribution: large intestine ([1]; 30 min after i.v. injection): 0.08 ± 0.060 % ID/g | biodistribution: liver ([1]; 30 min after i.v. injection): 0.58 ± 0.074 % ID/g | biodistribution: lung ([1]; 30 min after i.v. injection): 0.54 ± 0.211 % ID/g | biodistribution: muscle ([1]; 30 min after i.v. injection): 0.08 ± 0.020 % ID/g | biodistribution: pancreas ([1]; 30 min after i.v. injection): 0.50 ± 0.105 % ID/g | biodistribution: salivary gland ([1]; 30 min after i.v. injection): 0.20 ± 0.016 % ID/g | biodistribution: small intestine ([1]; 30 min after i.v. injection): 0.30 ± 0.154 % ID/g | biodistribution: spleen ([1]; 30 min after i.v. injection): 0.18 ± 0.004 % ID/g | biodistribution: testes ([1]; 30 min after i.v. injection): 0.08 ± 0.011 % ID/g | biodistribution: thyroid ([1]; 30 min after i.v. injection): 0.21 ± 0.023% of total dose per organ | biodistribution: tumor ([1]; 30 min after i.v. injection): 0.29 % ID/g and 0.29 ± 0.132 % ID/g | tumor:brain ratio ([1]; 30 min after i.v. injection): 8.8 | biodistribution: blood ([1]; 60 min after i.v. injection): 0.14 ± 0.015 % ID/g | biodistribution: bone ([1]; 60 min after i.v. injection): 0.08 ± 0.007 % ID/g | biodistribution: brain ([1]; 60 min after i.v. injection): 0.02 ± 0.001 % ID/g | biodistribution: fat ([1]; 60 min after i.v. injection): 0.02 ± 0.002 % ID/g | biodistribution: heart ([1]; 60 min after i.v. injection): 0.08 ± 0.006 % ID/g | biodistribution: kidney ([1]; 60 min after i.v. injection): 2.39 ± 0.138 % ID/g | biodistribution: large intestine ([1]; 60 min after i.v. injection): 0.05 ± 0.002 % ID/g | biodistribution: liver ([1]; 60 min after i.v. injection): 0.48 ± 0.023 % ID/g | biodistribution: lung ([1]; 60 min after i.v. injection): 0.37 ± 0.100 % ID/g | biodistribution: muscle ([1]; 60 min after i.v. injection): 0.05 ± 0.006 % ID/g | biodistribution: pancreas ([1]; 60 min after i.v. injection): 0.43 ± 0.063 % ID/g | biodistribution: salivary gland ([1]; 60 min after i.v. injection): 0.15 ± 0.009 % ID/g | biodistribution: small intestine ([1]; 60 min after i.v. injection): 0.35 ± 0.015 % ID/g | biodistribution: spleen ([1]; 60 min after i.v. injection): 0.14 ± 0.002 % ID/g | biodistribution: testes ([1]; 60 min after i.v. injection): 0.05 ± 0.002 % ID/g | biodistribution: thyroid ([1]; 60 min after i.v. injection): 0.12 ± 0.010% of total dose per organ | biodistribution: tumor ([1]; 60 min after i.v. injection): 0.17 ± 0.009 % ID/g | tumor:brain ratio ([1]; 60 min after i.v. injection): 6.9
